# Test results: US11925617B2 (priority 2005, dated 2024)
# Tests used:
# HT29 cells = assay type: cell-based, Human
# SCC VII cells = assay type: cell-based, murine
# HL60 neo cells [1] = assay: cells; assay type: cell-based; settings: Homo sapiens, HL-60, 240 h, read-out: inhibition of cell growth
# HL60 bcl-2 cells [2] = assay: cells; assay type: cell-based
# HL60 neo cells [3] = assay type: cell-based
# HL60 bcl-2 cells [4] = assay type: cell-based
# bcl-2 protein = assay type: cell-based
compound,measurement,setting,value
O=C(CBr)N1CC([N+](=O)[O-])([N+](=O)[O-])C1 [ABDNAZ],"intracellular ROS generation, combined treatment of ABDNAZ and radiation",HT29 cells,synergistically induced intracellular ROS generation
same,production of ROS,HT29 cells,"dose, time and cell line dependent"
same,time of peak ROS production,HT29 cells,24 h
same,"intracellular ROS generation, combined treatment of ABDNAZ and radiation",SCC VII cells,synergistically induced intracellular ROS generation
same,levels of ROS compared with HT29 cells,SCC VII cells,significantly higher than that induced in HT29 cells
same,production of ROS,SCC VII cells,"dose, time and cell line dependent"
same,time of peak ROS production,SCC VII cells,2 h
same,inhibition at 5 µM,HL60 neo cells [1],> 95%
same,sensitivity of HL60 bcl-2 cells compared with neo cells,HL60 bcl-2 cells [2],as sensitive as neo cells
same,inhibition at 5 µM,"HL60 bcl-2 cells [2]; Homo sapiens, HL-60, 240 h, read-out: inhibition of cell growth",> 95%
same,apoptosis,HL60 neo cells [3],95%
same,"apoptotic cell death, peak",HL60 neo cells [3],~40%
same,apoptosis,HL60 bcl-2 cells [4],78%
same,"apoptotic cell death, peak",HL60 bcl-2 cells [4],~40%
same,bcl-2 protein expression,bcl-2 protein,inhibited bcl-2 protein expression in both neo and bcl-2 cells in a dose-dependent manner
